The text below walks through data of patent publication US4610987A, “Imidazoquinazolin-2-one compounds” (Daiichi Seiyaku Co., Ltd., priority 1983, dated 1986).

For series [1], the target named is human heart PDE III. Put plainly: Inhibitory activity on phosphodiesterase, heart PDE III (cAMP). In kind it is biochemical. To be noted: for IC50: cAMP substrate; for activity on heart PDE (in words): Table 6. How it is done:
(§1) Phosphodiesterase fractions were separated from 105,000×g of supernatant fractions from human platelets and heart by DEAE-cellulose column chromatography using the method of Timothy et al. (Arch. Biochem. Biophy. 196, 465-474, 1979) with minor modifications. These fractions were designated PDE I, PDE II and PDE III, depending upon the order of their emergence from the DEAE-cellulose column.
(§2) Phosphodiesterase activity was measured by the method of Thompson and Appleman (Biochemistry 10, 311-316, 1971) with slight modifications. The reaction mixture consisted of 25 mM of Tris-HCl (pH 7.4), 5 mM of MgCl2, 1 μM of [^3 H]-cAMP or cGMP (approximate 20,000 cpm), various concentrations of a test compound and the enzyme preparation. After incubation for 10 minutes at 30° C., the reaction was terminated by boiling the reaction mixture for 45 seconds. 5'-[^3 H]-AMP or GMP formed by phosphodiesterase was converted to [^3 H]adenosine or [^3 H]quanosine by snake venom (Botherop Atrox) containing 5'-nucleotidase and the product isolated by a cation exchange resin was counted in a liquid scintillation counter.

For series [2], the target named is human heart PDE I. Put plainly: Inhibitory activity on phosphodiesterase, heart PDE I (cGMP). In kind it is biochemical. To be noted: cGMP substrate. How it is done:
as §1, §2

The target in series [3] is human platelet PDE I (Homo sapiens, UniProt O76074). Briefly: Inhibitory activity on phosphodiesterase, platelet PDE I (cGMP). Type of series: biochemical. Particulars: cGMP substrate. How it is done:
as §1, §2

The subject of series [4] is platelet aggregation (rat platelet-rich-plasma). Briefly: Test of Platelet Aggregation Inhibition (in vitro), rat PRP. Type of series: cell-based, Wistar Imamichi rat. To be noted: for IC50: Platelet, in vitro, rat blood. How it is done:
(§3) The test was performed as follows in accordance with the method of Ashida et al, Thrombosis and Haemostasis, Vol. 40, 542 (1979).
(§4) Blood was taken by puncture from the heart of a Wistar Imamichi rat under anesthesia with pentobarbital into a syringe containing 1/10 volume of a 3.13% aqueous solution of sodium citrate dihydrate, and the citrated blood was centrifuged to obtain a platelet-rich-plasma (PRP). In the same manner, citrated blood was collected from the vein of a healthy human who had not taken aspirin or any other anti-inflammatory agent since before 10 days, followed by centrifugation to obtain PRP. 5 μl of each test compound was added to 0.445 ml of each of these PRP samples, and the system was warmed at 30° C. for 1 minute. 50 μl of an aggregation inducer (ADP or collagen) was then added thereto, and platelet aggregation was determined according to the method of Born, Nature, Vol. 194, 927 (1962).

Series [5] relates to platelet aggregation. Briefly: Test of Platelet Aggregation Inhibition (ex vivo; i.v.). In kind it is in vivo, Wistar Imamichi rat. Particulars: iv, 10 min, rat, i.v. 1.0 mg/Kg/min, 10 min. How it is done:
As test animals, 5 to 6 Wistar Imamichi rats (body weight: about 260 g) that had been allowed food and water ad libitum were used per group. The test compound was dissolved in a physiological saline solution and continuously injected over a period of 10 or 15 minutes to the rats under anesthesia with pentobarbital through the femoral vein. Immediately after completion of the administration, citrated blood was collected from the heart, and platelet aggregation was determined in the same manner as in the test in vitro in Test Example 2.

For series [6], the system named is human platelet PDE II. Put plainly: Inhibitory activity on phosphodiesterase, platelet PDE II (cGMP). Type of series: biochemical. To be noted: cGMP substrate. How it is done:
as §1, §2

In series [7] the test system is platelet aggregation. Briefly: Test of Platelet Aggregation Inhibition (ex vivo, p.o.). In kind it is in vivo, Wistar Imamichi rat. To be noted: Platelet, po, ex vivo, rat, 10 mg/Kg p.o., 1 hour, *P<0.05, **P<0.01, ***P<0.001. How it is done: One hour later, citrated blood was taken from the heart, and platelet aggregation was determined in the same manner as described in the in vitro test. The inhibitory activity was compared with that of control and expressed in terms of percent inhibition.

The target in series [8] is human platelet PDE III (Homo sapiens, UniProt Q14432). Put plainly: biochemical. To be noted: for IC50: cAMP substrate. How it is done: as §1, §2
Sequence of human platelet PDE III (Q14432 whole entry): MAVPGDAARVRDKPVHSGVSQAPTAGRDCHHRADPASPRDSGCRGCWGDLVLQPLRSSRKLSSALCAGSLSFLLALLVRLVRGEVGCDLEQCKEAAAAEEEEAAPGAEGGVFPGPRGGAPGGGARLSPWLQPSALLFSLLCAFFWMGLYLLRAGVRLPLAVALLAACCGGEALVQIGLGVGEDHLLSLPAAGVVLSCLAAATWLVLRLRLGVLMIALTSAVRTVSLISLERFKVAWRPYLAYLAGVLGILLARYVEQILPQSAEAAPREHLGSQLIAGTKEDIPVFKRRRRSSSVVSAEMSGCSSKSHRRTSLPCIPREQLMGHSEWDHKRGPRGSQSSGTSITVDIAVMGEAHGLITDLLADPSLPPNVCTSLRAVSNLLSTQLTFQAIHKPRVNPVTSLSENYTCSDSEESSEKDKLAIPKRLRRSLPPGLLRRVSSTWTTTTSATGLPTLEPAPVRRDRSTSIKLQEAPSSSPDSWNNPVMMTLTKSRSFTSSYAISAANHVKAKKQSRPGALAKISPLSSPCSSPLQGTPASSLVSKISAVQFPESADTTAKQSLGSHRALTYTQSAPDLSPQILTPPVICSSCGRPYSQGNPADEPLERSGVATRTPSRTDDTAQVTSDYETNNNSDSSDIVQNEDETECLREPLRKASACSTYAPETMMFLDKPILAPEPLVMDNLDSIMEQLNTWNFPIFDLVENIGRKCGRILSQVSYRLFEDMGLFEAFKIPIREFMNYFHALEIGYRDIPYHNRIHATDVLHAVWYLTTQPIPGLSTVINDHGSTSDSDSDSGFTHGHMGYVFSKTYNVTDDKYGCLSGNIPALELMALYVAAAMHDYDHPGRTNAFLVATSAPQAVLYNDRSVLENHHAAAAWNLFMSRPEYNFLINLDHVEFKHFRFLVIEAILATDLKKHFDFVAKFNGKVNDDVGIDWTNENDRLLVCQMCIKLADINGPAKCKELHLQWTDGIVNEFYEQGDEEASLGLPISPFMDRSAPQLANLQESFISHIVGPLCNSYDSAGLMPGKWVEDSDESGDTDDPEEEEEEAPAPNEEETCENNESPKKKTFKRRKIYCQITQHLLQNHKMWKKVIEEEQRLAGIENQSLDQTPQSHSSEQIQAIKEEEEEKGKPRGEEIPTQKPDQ
Series [9] can be described thus: Solubility Test (water-solubility).
For series [10], the system named is platelet aggregation (human platelet-rich-plasma). Briefly: Test of Platelet Aggregation Inhibition (in vitro), human PRP. In kind it is cell-based. Particulars: human blood, ADP-induced. How it is done: as §3, §4
Series [11] has as its system platelet aggregation induced by B16 melanoma cells. Briefly: Inhibition on Platelet Aggregation Induced by Cancer Cells (in vitro), B16. In kind it is cell-based, C57BL/6 mouse. Set-up: key: +: Aggregation was observed.; ±: Aggregation was partially inhibited.; -: No aggregation was observed. How it is done: (§5) It is known nowadays that platelet aggregation plays an important role in metastasis of cancers. […] Tanaka et al. The effect of the compounds of this invention to inhibit the above-described cancer cell-induced platelet aggregation was tested as follows. Cell suspensions of B16 or 3LL were prepared according to the method of Tanaka et al, Invarsion and Metastasis, Vol. 2, 289 (1982). […] Platelet aggregation of the sample system was determined according to the method of Born, and the platelet aggregation inhibitory activity was expressed by the following scale: […]

In series [12] the test system is platelet aggregation induced by Lewis lung cancer (3LL) cells. Briefly: Inhibition on Platelet Aggregation Induced by Cancer Cells (in vitro), 3LL. The arrangement: key: +: Aggregation was observed.; ±: Aggregation was partially inhibited.; -: No aggregation was observed. Type of series: cell-based, C57BL/6 mouse. How it is done:
as §5

The mark [13] stands for this setting: ADP-induced, read-out: IC50, platelet aggregation inhibition in vitro, ADP.
[14] abbreviates: collagen-induced, read-out: IC50, platelet aggregation inhibition in vitro, Collagen.
Setting [15] is: ADP, *P<0.05, **P<0.01, read-out: Percent Inhibition of platelet aggregation, ADP.
[16] abbreviates: collagen, *P<0.05, **P<0.01, read-out: Percent Inhibition of platelet aggregation, Collagen.
[17] abbreviates: ADP, read-out: ex vivo % inhibition of platelet aggregation, ADP.
Setting [18] is: collagen, read-out: ex vivo % inhibition of platelet aggregation, Collagen.

Counter-ions that a name gives are not always drawn. Like-named read-outs stand apart in the source and are kept apart here.

For `Nc1cc(-c2ccncc2)c[nH]c1=O` [Amrinone, 5Amino-(3,4bipyridin)-6(1H)--one, reference compound], the IC50 in series [1] is 34000 nM; in series [2], above 100 µM; in series [3], above 100 µM.

As for `O=C1CN2Cc3cc(N4CCCC4)ccc3N=C2N1` [Example 26, 7-pyrrolidino-1,2,3,5-tetrahydroimidazo[2,1-b]quinazolin-2-one dihydrochloride], the IC50 was 2600 nM in series [4] (setting [13]) and 1900 nM in series [4] (setting [14]).

In the case of `O=C1CN2Cc3ccc(N4CCOCC4)cc3N=C2N1` [Example 8], the inhibition at 1 mg/kg in [5] (setting [15]) was 16.5%; in [5] (setting [16]), 48.5%.

Turning to `CN(C)c1ccc2c(c1Cl)CN1CC(=O)NC1=N2` [Example 22], the IC50 in series [6] was 2.9 µM; in series [1], 180 nM; in [2], above 100 µM; in [8], 150 nM; in series [4] (setting [13]), 7000 nM; in series [4] (setting [14]) it was 1200 nM. In addition, half-maximal inhibition in series [3] (IC50) required 1.6 µM. The inhibition at 10 mg/kg in series [7] (setting [17]) worked out at 64%; in [7] (setting [18]), 86%. The “activity on heart PDE (in words)” value in series [1] is “strong activity on heart PDE”. Besides, the “IC50 Ratio (PDE II) Heart/Platelet” value in series [8] is listed as 1.2. The inhibition at 1 mg/kg in series [5] (setting [15]) was determined as 23.5%; in series [5] (setting [16]), 100%. Besides, the “platelet aggregation inhibitory activity (in words)” value in series [4] is “strong platelet aggregation inhibitory activity”. The “water-solubility (in words)” value in [9] was “water-soluble”.

In the case of `Cl.Cl.Nc1ccc2c(c1)CN1CC(=O)NC1=N2` [BL-7-NH2, 7-amino-1,2,3,5-tetrahydroimidazo[2,1-b]quinazolin-2-one dihydrochloride, reference compound], the IC50 in series [10] is 50 µM; in series [4] (setting [13]), 170000 nM; in series [4] (setting [14]) it was 16000 nM. Further, the “platelet aggregation inhibitory activity (in words)” value in series [4] is given as “scarecely exhibited platelet aggregation inhibitory activity”.

With `CCN(CC)c1ccc2c(c1Cl)CN1CC(=O)NC1=N2` [Example 23], the values for the inhibition at 10 mg/kg in [7] (setting [17]) and in series [7] (setting [18]) were 25% and 70%, respectively. In addition, the IC50 in series [4] (setting [13]) is 5600 nM; in [4] (setting [14]), 1300 nM.

For `O=C1CN2Cc3cc(N4CCCCC4)ccc3N=C2N1` [7-Piperidino Compound, reference compound], the IC50 in series [6] was 54 µM; in series [1] it was 800 nM; in series [2], above 100 µM; in [8] it was 150 nM; in [3] it was 93 µM. In [8], the “IC50 Ratio (PDE II) Heart/Platelet” value is on record as 5.3.

For the molecule `O=C1CN2Cc3cc(N4CCOCC4)c(Cl)cc3N=C2N1` [Example 17], the values for the inhibition at 10 mg/kg in [7] (setting [17]) and in [7] (setting [18]) were 47% and 68%, respectively. Further, the IC50 stood at 360 nM in [4] (setting [13]) and 100 nM in [4] (setting [14]).

As for `Cl.O=C1CN2Cc3c(sc4c3CCCC4)N=C2N1` [DH-6471, reference compound], the IC50 in [6] was above 100 µM; in [1], 460 nM; in series [2], above 10 µM; in series [8], 65 nM; in series [3], above 100 µM. For the same molecule, in series [8], the “IC50 Ratio (PDE II) Heart/Platelet” value is 7.1.

As to `CC1CCCCN1c1ccc2c(c1)CN1CC(=O)NC1=N2` (stereo not drawn) [Example 5], the IC50 in series [6] was 57 µM; in series [1], 800 nM; in [2], above 50 µM; in series [8], 350 nM; in series [4] (setting [13]), 2000 nM; in [4] (setting [14]) it was 1700 nM. In series [3], this molecule returned an IC50 of 45 µM. For the same molecule, in series [1], the “activity on heart PDE (in words)” value is listed as “strong activity on heart PDE”. In addition, the “IC50 Ratio (PDE II) Heart/Platelet” value in [8] was 2.3. Further, the “platelet aggregation inhibitory activity (in words)” value in [4] is reported as “strong platelet aggregation inhibitory activity”. Besides, the “water-solubility (in words)” value in series [9] was “water-soluble”.

Consider `CN(C)c1cccc2c1CN1CC(=O)NC1=N2` [Example 2], for which the results for the IC50 in series [4] (setting [13]) and in [4] (setting [14]) were 2700 nM and 1500 nM, respectively.

As for `O=C1CN2Cc3cc(N4CCOCC4)ccc3N=C2N1` [Example 28], the IC50 in series [4] (setting [13]) is 5000 nM; in series [4] (setting [14]) it was 2000 nM.

`O=C1CN2Cc3c(ccc(N4CCCCC4)c3Cl)N=C2N1` [Example 9]: the inhibition at 10 mg/kg in series [7] (setting [17]) turned out to be 25%; in series [7] (setting [18]), 32%. In addition, the IC50 in [4] (setting [13]) is 7900 nM; in series [4] (setting [14]) it was 1200 nM.

Take `CN(C)c1cc2c(cc1Cl)NC1=NC(=O)CN1C2` [Example 15]: the IC50 is 5.1 µM in series [6]; 110 nM in series [1]; above 100 µM in [2]; 63 nM in [8]; 1100 nM in series [4] (setting [13]); 440 nM in [4] (setting [14]). Besides, the 50% inhibitory concentration (IC50) in series [3] was 3.9 µM. The figures for the inhibition at 10 mg/kg in series [7] (setting [17]) and in [7] (setting [18]) were 28% and 49%, respectively. The “Inhibition on platelet aggregation induced by B16” value in series [11] (sample concn. 0.1 μM) is reported as “+”; in [11] (sample concn. 0.3 μM), “-”; in [11] (sample concn. 1 μM) it was “-”; in series [11] (sample concn. 3 μM) it was “-”. Moreover, the “activity on heart PDE (in words)” value in series [1] is given as “strong activity on heart PDE”. For the same molecule, the “IC50 Ratio (PDE II) Heart/Platelet” value in series [8] came to 1.7. Further, the figures for the “Inhibition on platelet aggregation induced by 3LL” value in series [12] (sample concn. 0.3 μM), in series [12] (sample concn. 1 μM) and in series [12] (sample concn. 3 μM) were “±”, “-” and “-”, respectively. In addition, the “platelet aggregation inhibitory activity (in words)” value in [4] was “strong platelet aggregation inhibitory activity”. Besides, the “water-solubility (in words)” value in [9] is reported as “water-soluble”.

Turning to `Cc1cc2c(cc1N1CCCCC1)CN1CC(=O)NC1=N2` [Example 18], the IC50 in series [4] (setting [13]) worked out at 5400 nM; in series [4] (setting [14]) it was 580 nM.

The term IC50 denotes the point on the concentration scale where inhibition reaches its midpoint. As usually defined, the inhibition is the percentage by which the read-out fell short of the control.
